Source: ChEMBL document CHEMBL1201862, “PubChem BioAssay data set” (2004)
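Test compounds were applied to cells in 96-well plates for 48 hours at 5 doses. At the GI50, growth is halved.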 The source made the active and inactive calls. No stated cut-off is given here; in the data, active = GI50 up to about 1.1 µM and inactive = higher. Positions of bridges follow the written chain, without caps; N, C: chain ends. Non-standard residues stand in square brackets, D forms with d. Residues, ends and D or L forms follow the SMILES beside them. *: point of attachment. PhAc = O=C(Cc1ccccc1)*

What was measured:
Assay in all cases: DTP human tumour cell line panel, 48 h
786-0 = system: 786-0
A498 = system: A498
A549 = system: A549
ACHN = system: ACHN
CAKI-1 = system: CAKI-1
CCRF-CEM = system: CCRF-CEM
COLO 205 = system: COLO 205
DU-145 = system: DU-145
EKVX = system: EKVX
HCC 2998 = system: HCC 2998
HCT-116 = system: HCT-116
HCT-15 = system: HCT-15
HL-60 = system: HL-60
HOP-62 = system: HOP-62
HOP-92 = system: HOP-92
HT-29 = system: HT-29
Hs-578T = system: Hs-578T
IGROV-1 = system: IGROV-1
KM12 = system: KM12
LOX IMVI = system: LOX IMVI
M14 = system: M14
MCF7 = system: MCF7
MDA-MB-231 = system: MDA-MB-231
MDA-MB-435 = system: MDA-MB-435
MDA-N = system: MDA-N
MOLT-4 = system: MOLT-4
Malme-3M = system: Malme-3M
NCI-H23 = system: NCI-H23
NCI-H460 = system: NCI-H460
NCI/ADR-RES = system: NCI/ADR-RES
OVCAR-3 = system: OVCAR-3
OVCAR-4 = system: OVCAR-4
OVCAR-5 = system: OVCAR-5
OVCAR-8 = system: OVCAR-8
PC-3 = system: PC-3
RXF 393 = system: RXF 393
SF-268 = system: SF-268
SF-295 = system: SF-295
SF-539 = system: SF-539
SK-MEL-28 = system: SK-MEL-28
SK-MEL-2 = system: SK-MEL-2
SK-MEL-5 = system: SK-MEL-5
SK-OV-3 = system: SK-OV-3
SN12C = system: SN12C
SNB-19 = system: SNB-19
SNB-75 = system: SNB-75
SR = system: SR
SW-620 = system: SW-620
T47D = system: T47D
TK-10 = system: TK-10
UACC-257 = system: UACC-257
UACC-62 = system: UACC-62
BT-549 = system: BT-549
K562 = system: K562
NCI-H226 = system: NCI-H226
NCI-H522 = system: NCI-H522
RPMI-8226 = system: RPMI-8226
U-251 = system: U-251
UO-31 = system: UO-31

`O=C(Cc1ccccc1)N[C@@H]1COC(=O)[C@@H]2CCCN2C(=O)[C@@H]2CCCN2C1=O` (PhAc-[dS]-Pro-Pro; ester 1-C) was tested, and the GI50 (786-0) was > 100 µM (inactive), the GI50 (A498) was > 100 µM (inactive) and the GI50 (A549) was > 100 µM (inactive). The GI50 (ACHN) was > 100 µM (inactive), the GI50 (CAKI-1) was > 100 µM (inactive) and the GI50 (CCRF-CEM) was > 100 µM (inactive). For the same compound, the GI50 (COLO 205) was > 100 µM (inactive), the GI50 (DU-145) was > 100 µM (inactive) and the GI50 (EKVX) was > 100 µM (inactive). The GI50 (HCC 2998) was > 100 µM (inactive), the GI50 (HCT-116) was > 100 µM (inactive) and the GI50 (HCT-15) was > 100 µM. The GI50 (HL-60) was > 100 µM (inactive), the GI50 (HOP-62) was > 100 µM (inactive) and the GI50 (HOP-92) was > 100 µM (inactive). For the same compound, the GI50 (HT-29) was > 100 µM (inactive), the GI50 (Hs-578T) was > 100 µM (inactive) and the GI50 (IGROV-1) was > 100 µM (inactive). For the same compound, the GI50 (KM12) was > 100 µM (inactive), the GI50 (LOX IMVI) was > 100 µM (inactive) and the GI50 (M14) was > 100 µM (inactive). The GI50 (MCF7) was > 100 µM (inactive), the GI50 (MDA-MB-231) was > 100 µM (inactive) and the GI50 (MDA-MB-435) was > 100 µM (inactive). For the same compound, the GI50 (MDA-N) was > 100 µM (inactive), the GI50 (MOLT-4) was > 100 µM (inactive) and the GI50 (Malme-3M) was > 100 µM (inactive). The GI50 (NCI-H23) was > 100 µM (inactive), the GI50 (NCI-H460) was > 100 µM (inactive) and the GI50 (NCI/ADR-RES) was > 100 µM (inactive). For the same compound, the GI50 (OVCAR-3) was > 100 µM (inactive), the GI50 (OVCAR-4) was > 100 µM (inactive) and the GI50 (OVCAR-5) was > 100 µM (inactive). For the same compound, the GI50 (OVCAR-8) was > 100 µM (inactive), the GI50 (PC-3) was > 100 µM (inactive) and the GI50 (RXF 393) was > 100 µM (inactive). For the same compound, the GI50 (SF-268) was > 100 µM (inactive), the GI50 (SF-295) was > 100 µM (inactive) and the GI50 (SF-539) was > 100 µM (inactive). For the same compound, the GI50 (SK-MEL-28) was > 100 µM (inactive), the GI50 (SK-MEL-2) was > 100 µM (inactive) and the GI50 (SK-MEL-5) was > 100 µM (inactive). The GI50 (SK-OV-3) was > 100 µM (inactive), the GI50 (SN12C) was > 100 µM (inactive) and the GI50 (SNB-19) was > 100 µM (inactive). The GI50 (SNB-75) was 0.0254 µM (active), the GI50 (SR) was > 100 µM (inactive) and the GI50 (SW-620) was > 100 µM (inactive). The GI50 (T47D) was > 100 µM (inactive), the GI50 (TK-10) was > 100 µM (inactive) and the GI50 (UACC-257) was > 100 µM (inactive). For the same compound, the GI50 (UACC-62) was > 100 µM (inactive).
`C=C(Cl)/C(=C\Cl)CCC(Br)C(C)C` (stereo not given) was tested, and the GI50 (786-0) was 60.1 µM (inactive), the GI50 (A498) was > 100 µM (inactive) and the GI50 (A549) was > 100 µM (inactive). The GI50 (ACHN) was > 100 µM (inactive), the GI50 (BT-549) was > 100 µM (inactive) and the GI50 (CAKI-1) was > 100 µM (inactive). For the same compound, the GI50 (CCRF-CEM) was 44.5 µM (inactive), the GI50 (COLO 205) was > 100 µM (inactive) and the GI50 (DU-145) was > 100 µM (inactive). For the same compound, the GI50 (EKVX) was > 100 µM (inactive), the GI50 (HCC 2998) was > 100 µM (inactive) and the GI50 (HCT-116) was > 100 µM (inactive). For the same compound, the GI50 (HL-60) was 63.5 µM (inactive), the GI50 (HOP-62) was > 100 µM (inactive) and the GI50 (HOP-92) was > 100 µM (inactive). The GI50 (HT-29) was > 100 µM (inactive), the GI50 (Hs-578T) was > 100 µM (inactive) and the GI50 (IGROV-1) was > 100 µM (inactive). For the same compound, the GI50 (K562) was 36.2 µM (inactive), the GI50 (KM12) was > 100 µM (inactive) and the GI50 (LOX IMVI) was 15.8 µM (inactive). For the same compound, the GI50 (M14) was 64.3 µM (inactive), the GI50 (MCF7) was 48.9 µM (inactive) and the GI50 (MDA-MB-231) was 24.9 µM (inactive). For the same compound, the GI50 (MDA-MB-435) was 81.5 µM (inactive), the GI50 (MDA-N) was 41 µM (inactive) and the GI50 (MOLT-4) was 37.9 µM (inactive). The GI50 (NCI-H226) was > 100 µM (inactive), the GI50 (NCI-H23) was > 100 µM (inactive) and the GI50 (NCI-H460) was > 100 µM (inactive). For the same compound, the GI50 (NCI-H522) was 21.1 µM (inactive), the GI50 (NCI/ADR-RES) was > 100 µM (inactive) and the GI50 (OVCAR-3) was > 100 µM (inactive). For the same compound, the GI50 (OVCAR-4) was 29.2 µM (inactive), the GI50 (OVCAR-5) was > 100 µM (inactive) and the GI50 (PC-3) was > 100 µM (inactive). The GI50 (RPMI-8226) was > 100 µM (inactive), the GI50 (RXF 393) was 77.3 µM (inactive) and the GI50 (SF-268) was > 100 µM (inactive). For the same compound, the GI50 (SF-295) was > 100 µM (inactive), the GI50 (SF-539) was > 100 µM (inactive) and the GI50 (SK-MEL-28) was 78.5 µM (inactive). For the same compound, the GI50 (SK-MEL-2) was > 100 µM (inactive), the GI50 (SK-MEL-5) was > 100 µM (inactive) and the GI50 (SK-OV-3) was > 100 µM (inactive). The GI50 (SN12C) was > 100 µM (inactive), the GI50 (SNB-19) was > 100 µM (inactive) and the GI50 (SNB-75) was > 100 µM (inactive). For the same compound, the GI50 (SR) was > 100 µM (inactive), the GI50 (SW-620) was 19.5 µM (inactive) and the GI50 (TK-10) was > 100 µM (inactive). For the same compound, the GI50 (U-251) was > 100 µM (inactive), the GI50 (UACC-257) was 58.5 µM (inactive) and the GI50 (UACC-62) was 51.8 µM (inactive). The GI50 (UO-31) was 78.2 µM (inactive).
In the case of `NNC(=O)c1c(-c2cccnc2)cnc2ccccc12`, the GI50 (786-0) is reported as > 100 µM (inactive), the GI50 (A549) is reported as > 100 µM (inactive) and the GI50 (ACHN) is reported as > 100 µM (inactive). The GI50 (BT-549) was > 100 µM (inactive), the GI50 (CAKI-1) was > 100 µM (inactive) and the GI50 (CCRF-CEM) was > 100 µM (inactive). The GI50 (COLO 205) was > 100 µM (inactive), the GI50 (DU-145) was > 100 µM (inactive) and the GI50 (EKVX) was > 100 µM (inactive). The GI50 (HCC 2998) was > 100 µM (inactive), the GI50 (HCT-116) was > 100 µM (inactive) and the GI50 (HCT-15) was > 100 µM. The GI50 (HL-60) was > 100 µM (inactive), the GI50 (HOP-62) was > 100 µM (inactive) and the GI50 (HOP-92) was > 100 µM (inactive). The GI50 (HT-29) was > 100 µM (inactive), the GI50 (IGROV-1) was > 100 µM (inactive) and the GI50 (K562) was > 100 µM (inactive). The GI50 (KM12) was > 100 µM (inactive), the GI50 (M14) was > 100 µM (inactive) and the GI50 (MCF7) was > 100 µM (inactive). The GI50 (MDA-N) was > 100 µM (inactive), the GI50 (MOLT-4) was > 100 µM (inactive) and the GI50 (Malme-3M) was > 100 µM (inactive). The GI50 (NCI-H226) was > 100 µM (inactive), the GI50 (NCI-H23) was > 100 µM (inactive) and the GI50 (NCI-H460) was > 100 µM (inactive). The GI50 (NCI-H522) was > 100 µM (inactive), the GI50 (NCI/ADR-RES) was > 100 µM (inactive) and the GI50 (OVCAR-3) was > 100 µM (inactive). The GI50 (OVCAR-4) was > 100 µM (inactive), the GI50 (OVCAR-5) was > 100 µM (inactive) and the GI50 (OVCAR-8) was > 100 µM (inactive). The GI50 (PC-3) was > 100 µM (inactive), the GI50 (RPMI-8226) was > 100 µM (inactive) and the GI50 (RXF 393) was > 100 µM (inactive). For the same compound, the GI50 (SF-268) was > 100 µM (inactive), the GI50 (SF-295) was > 100 µM (inactive) and the GI50 (SF-539) was > 100 µM (inactive). The GI50 (SK-MEL-28) was > 100 µM (inactive), the GI50 (SK-MEL-2) was > 100 µM (inactive) and the GI50 (SK-MEL-5) was > 100 µM (inactive). For the same compound, the GI50 (SK-OV-3) was 4.02 µM (inactive), the GI50 (SN12C) was > 100 µM (inactive) and the GI50 (SNB-19) was > 100 µM (inactive). For the same compound, the GI50 (SNB-75) was 45.6 µM (inactive), the GI50 (SR) was > 100 µM (inactive) and the GI50 (SW-620) was > 100 µM (inactive). The GI50 (TK-10) was > 100 µM (inactive), the GI50 (U-251) was > 100 µM (inactive) and the GI50 (UACC-257) was > 100 µM (inactive). The GI50 (UACC-62) was > 100 µM (inactive) and the GI50 (UO-31) was > 100 µM (inactive).
